Results from US20190307726A1, “PHARMACEUTICAL FORMULATIONS” (Molecular Defenses Corporation, priority 2015, published 2019).

Tests used:
E. coli Trx = E. coli Trx (Escherichia coli, UniProt P0AA25); experiment: Oxidation of reduced E. coli Trx-(SH)2, fluorescence spectroscopy; type: biochemical
From the text: Oxidation E. coli Trx-(SH)2 by ebselen derivatives. Oxidant property of benzisoselenazol-3(2H)-one derivatives on reduced E. coli Trx-(SH)2 were studied by fluorescence spectroscopy.

gshA- DHB4 E. coli = conditions: cited from earlier work
wild type DHB4 E. coli = conditions: cited from earlier work
Gor- DHB4 E. coli = conditions: cited from earlier work
[1] = 30 μM compound, 0.5 mM GSH, 0.5 mM H2O2, NADPH consumption; cited from earlier work
HEK 293T cells = conditions: 24 h incubation, XTT; cited from earlier work
E. coli TrxR = E. coli TrxR (Escherichia coli, UniProt P0A9P4); conditions: cited from earlier work
recombinant rat TrxR = molecular target: T1, recombinant rat TrxR (Rattus norvegicus, UniProt O89049); conditions: cited from earlier work
T1 sequence (O89049 1-499): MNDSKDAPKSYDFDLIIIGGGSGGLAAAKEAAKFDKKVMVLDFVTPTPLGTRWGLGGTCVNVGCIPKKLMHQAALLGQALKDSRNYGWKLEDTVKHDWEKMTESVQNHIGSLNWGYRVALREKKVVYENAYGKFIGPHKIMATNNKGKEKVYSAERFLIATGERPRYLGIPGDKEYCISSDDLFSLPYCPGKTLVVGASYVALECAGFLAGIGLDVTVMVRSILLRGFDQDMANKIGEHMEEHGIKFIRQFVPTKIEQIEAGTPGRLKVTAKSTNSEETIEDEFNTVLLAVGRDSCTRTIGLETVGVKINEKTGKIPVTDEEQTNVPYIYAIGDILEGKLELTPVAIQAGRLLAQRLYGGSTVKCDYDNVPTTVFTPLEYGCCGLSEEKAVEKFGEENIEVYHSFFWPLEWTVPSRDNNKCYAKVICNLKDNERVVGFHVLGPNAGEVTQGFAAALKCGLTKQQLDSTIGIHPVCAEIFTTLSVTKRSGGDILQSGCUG

Staphylococcus aureus = conditions: cited from earlier work
[2] = tested on: MDR Mycobacterium tuberculosis; experiment: Sensitivity of Mycobacterium tuberculosis to ebselen, radiometric BACTEC 460 system; type: cell-based; conditions: medium with 5 g/l albumin; dependent upon albumin saturation

Sequence of E. coli TrxR (P0A9P4 2-321): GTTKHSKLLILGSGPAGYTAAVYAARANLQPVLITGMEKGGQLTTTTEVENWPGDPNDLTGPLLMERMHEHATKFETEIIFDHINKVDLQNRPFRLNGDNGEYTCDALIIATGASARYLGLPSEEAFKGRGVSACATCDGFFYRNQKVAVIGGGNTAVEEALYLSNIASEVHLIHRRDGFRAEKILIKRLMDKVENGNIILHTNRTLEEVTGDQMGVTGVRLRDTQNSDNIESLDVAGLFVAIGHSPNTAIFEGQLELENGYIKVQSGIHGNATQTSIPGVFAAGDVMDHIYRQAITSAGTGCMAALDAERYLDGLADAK
Sequence of E. coli Trx (P0AA25 whole entry): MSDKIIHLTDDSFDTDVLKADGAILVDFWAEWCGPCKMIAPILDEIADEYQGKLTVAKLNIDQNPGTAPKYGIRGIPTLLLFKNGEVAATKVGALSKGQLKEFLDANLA

Compound	MIC for gshA- DHB4 E. coli (gshA- DHB4 E. coli)	MIC for wild type DHB4 E. coli (wild type DHB4 E. coli)	MIC for Gor- DHB4 E. coli (Gor- DHB4 E. coli)	other results
O=C(Nc1ccccc1)c1ccccc1[Se][Se]c1ccccc1C(=O)Nc1ccccc1 [ebselen diselenide]				second-order rate constant, reduction by reduced E. coli Trx (E. coli Trx): 1700 M⁻¹ s⁻¹
O=c1c2ccccc2[se]n1CCCCCCn1[se]c2ccccc2c1=O [EbSe 16]	20 µM	20 µM	35 µM	
O=c1c2ccccc2[se]n1-c1ccc(Cl)cc1 [EbSe 7]	20 µM	34 µM	23 µM	
O=c1c2ccccc2[se]n1-c1ncccc1[N+](=O)[O-] [EbSe 12]	No Inh.	No Inh.	No Inh.	Relative GPx activity [1]: 0.93; IC50 (HEK 293T cells): 80 µM
CCOC(=O)c1cccnc1[Se]Nc1ccc(Cl)cn1 [compound 2]	No Inh.	No Inh.	No Inh.	
O=c1c2ccccc2[se]n1-c1ccc(Cl)cn1 [EbSe 11]	No Inh.	No Inh.	No Inh.	Relative GPx activity [1]: 0.87; IC50 (HEK 293T cells): > 160 µM; IC50 (E. coli TrxR; read-out: IC50 for E. coli TrxR, 100 nM TrxR, 2 μM Trx, 240 μM NADPH, 1 mM DTNB): > 40 µM; Ki (E. coli TrxR; read-out: Ki for E. coli TrxR, Dixon plot, 6 nM TrxR, Trx 1, 2 or 4 μM): 0.3 µM
O=c1c2ccccc2[se]n1CCn1[se]c2ccccc2c1=O [EbSe 14]	23 µM	23 µM	19 µM	Relative GPx activity [1]: No activity
CC(C)(C)n1[se]c2ccccc2c1=O [EbSe 4]				inhibition of mammalian TrxR (in words) (recombinant rat TrxR): some activity to inhibit mammalian TrxR
O=C(O)c1ccccc1-n1[se]c2ccccc2c1=O [EbSe 9]	24 µM	49 µM	31 µM	
O=c1c2ccccc2[se]n1-c1ccncc1 [EbSe 13]	21 µM	45 µM	24 µM	
O=c1c2ccccc2[se]n1-c1ccccc1 [EbSe 6, 2-phenyl-1,2-benzisoselenazol-3(2H)-one]	26 µM	40 µM	15 µM	difference in sensitivity, Staphyloccus aureus versus E. coli (Staphylococcus aureus): 100 fold; concentration inhibiting growth of methicillin resistant Staphylococcus aureus (Staphylococcus aureus; methicillin resistant Staphylococcus aureus): 0.20 μg per ml; concentration inhibiting growth of Staphylococcus aureus 209P (Staphylococcus aureus; strain 209P): 0.20 µg/mL; MIC, Mycobacterium tuberculosis [2]: lower than 20 mg/I; second-order rate constant, reduction by reduced E. coli Trx (E. coli Trx): 2e+07 M⁻¹ s⁻¹
Cc1cc(Cl)ccc1-n1[se]c2ccccc2c1=O [EbSe 8]	13 µM	47 µM	24 µM	
